Laboratory results as given in ChEMBL document CHEMBL4411316, “Design, synthesis and identification of novel coumaperine derivatives for inhibition of human 5-LOX: Antioxidant, pseudoperoxidase and docking studies” (Bioorg Med Chem, 2019).
Activity calls are given as the source filed them. The rule behind the calls is not given here.

Assays:
[1] = molecular target: T1, Polyunsaturated fatty acid 5-lipoxygenase (Homo sapiens, UniProt P09917); experiment: Inhibition of human 5-LOX using arachidonic acid as substrate measured after 10 mins by ELISA
T1 sequence (P09917 whole entry): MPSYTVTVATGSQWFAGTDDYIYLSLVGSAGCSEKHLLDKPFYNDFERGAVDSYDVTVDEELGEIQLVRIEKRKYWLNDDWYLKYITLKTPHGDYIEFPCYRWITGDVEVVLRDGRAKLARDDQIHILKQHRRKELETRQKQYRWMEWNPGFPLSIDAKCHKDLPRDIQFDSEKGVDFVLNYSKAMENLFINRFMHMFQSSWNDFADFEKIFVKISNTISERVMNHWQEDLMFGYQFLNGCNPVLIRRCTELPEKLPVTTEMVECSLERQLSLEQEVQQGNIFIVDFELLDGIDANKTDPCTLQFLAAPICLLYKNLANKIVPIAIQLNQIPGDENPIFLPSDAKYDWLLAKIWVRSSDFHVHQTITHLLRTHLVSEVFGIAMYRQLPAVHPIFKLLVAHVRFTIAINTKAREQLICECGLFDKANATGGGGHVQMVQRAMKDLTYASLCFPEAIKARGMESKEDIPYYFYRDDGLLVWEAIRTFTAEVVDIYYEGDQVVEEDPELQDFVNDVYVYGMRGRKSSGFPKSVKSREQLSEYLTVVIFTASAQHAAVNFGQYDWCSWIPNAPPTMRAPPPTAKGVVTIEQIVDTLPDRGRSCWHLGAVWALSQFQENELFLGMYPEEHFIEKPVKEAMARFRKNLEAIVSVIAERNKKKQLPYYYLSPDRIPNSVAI

[2] = molecular target: T2, Polyunsaturated fatty acid 5-lipoxygenase (Homo sapiens) (UniProt P09917); experiment: Inhibition of recombinant human 5-LOX expressed in Escherichia coli at 20 uM using arachidonic acid as substrate by UV-vis spectrophotometric method relative to control
T2 sequence (whole entry): T1 sequence (P09917 whole entry)

[3] = molecular target: T1, Polyunsaturated fatty acid 5-lipoxygenase; experiment: Inhibition of recombinant human 5-LOX expressed in Escherichia coli using arachidonic acid as substrate by UV-vis spectrophotometric method
[4] = molecular target: T2, Polyunsaturated fatty acid 5-lipoxygenase (Homo sapiens); experiment: Inhibition of recombinant human 5-LOX pseudoperoxidase activity expressed in Escherichia coli BL21 assessed as compound redox activity by measuring reduction in absorption at 10 uM using 13(S)-HpODE as substrate by UV-vis spectrophotometric method relative to control; set-up: scale not given: the % may be the effect or the level left
[5] = Antioxidant activity assessed as DPPH radical scavenging activity at 20 uM incubated for 30 mins under dark condition relative to control; assay type: functional

## Oc1cc(O)cc(/C=C/c2ccc(O)cc2O)c1 [OXYRESVERATROL]
[1]
  IC50: 18.5 µM

## CN(C)c1ccc(/C=C/C=C/C=C/C(=O)N2CCCCC2)cc1
[2]
  inhibition: 27.4%

## O=C(/C=C/c1ccc(O)c(O)c1)N1CCCCC1
[2]
  inhibition: 55.2%

## O=C(/C=C/C=C/c1ccc(OC2CCCC2)cc1)N1CCCCC1
[2]
  inhibition: 16.1%

## O=C(/C=C/C=C/C=C/c1ccc(O)c(O)c1)N1CCCCC1
[2]
  inhibition: 30.3%

## COc1cc(/C=C/C=C/C(=O)N2CCCCC2)cc(OC)c1O
[2]
  inhibition: 32.7%

## CSc1ccc(/C=C/C=C/C(=O)N2CCCCC2)cc1
[2]
  inhibition: 11.8%

## O=C(/C=C/C=C/c1cc(O)c(O)c(O)c1)N1CCCCC1
[3]
  IC50: 2.3 µM
[2]
  inhibition: 82.5%
[4]
  Activity: 50.8%
[5]
  Activity: 71.3%

## O=C(/C=C/C=C/c1ccccc1)N1CCCCC1
[2]
  inhibition: 36.3%

## COc1cc(OC)c(/C=C/C=C/C(=O)N2CCCCC2)c(OC)c1
[2]
  inhibition: 77.1%
[4]
  Activity: inactive
[5]
  Activity: 3.6%

## O=C(/C=C/c1ccc2c(c1)OCO2)N1CCCCC1
[2]
  inhibition: 39.9%

## COc1ccc(/C=C/C=C/C(=O)N2CCCCC2)cc1OC
[2]
  inhibition: 51.9%

## O=C(/C=C/C=C/C=C/c1ccc2c(c1)OCO2)N1CCCCC1
[2]
  inhibition: 76%
[4]
  Activity: inactive
[5]
  Activity: 0.9%

## O=C(/C=C/C=C/c1ccc(Cl)cc1)N1CCCCC1
[2]
  inhibition: 14.5%

## COc1cc(/C=C/c2ccc(O)cc2)cc(OC)c1 [PTEROSTILBENE]
[1]
  IC50: 9.32 µM

## O=C(/C=C/C=C/c1ccc2c(c1)OCO2)N1CCCCC1
[2]
  inhibition: 47.5%

## COc1cc(/C=C/C=C/C(=O)N2CCCCC2)ccc1O
[2]
  inhibition: 55.5%

## CC(=O)Oc1ccc(/C=C/C=C/C(=O)N2CCCCC2)cc1
[2]
  inhibition: 18.3%

## COC1=C(OC)C(=O)C(CCCCCCCCCCO)=C(C)C1=O [IDEBENONE]
[1]
  IC50: > 10 µM

## COc1ccc(/C=C/C=C/C(=O)N2CCCCC2)c(OC)c1OC
[2]
  inhibition: 36%

## O=C(/C=C/C=C/c1ccc(F)cc1)N1CCCCC1
[2]
  inhibition: 48.7%

## O=C(/C=C/C=C/c1ccc(O)cc1)N1CCCCC1
[2]
  inhibition: 44.4%

## COc1ccc(/C=C/C=C/C=C/C(=O)N2CCCCC2)cc1
[2]
  inhibition: 1.08%

## O=C(/C=C/C=C/c1ccc(O)c(O)c1)N1CCCCC1
[3]
  IC50: 2.1 µM
[2]
  inhibition: 82.8%
[4]
  Activity: 57.4%
[5]
  Activity: 76.8%

## O=C1O[C@H]([C@@H](O)CO)C(O)=C1O
[5]
  Activity: 80.1%

## COc1cc(/C=C/C=C/C(=O)N2CCCCC2)cc(OC)c1
[2]
  inhibition: 64.9%

## CN(C)c1ccc(/C=C/C=C/C(=O)N2CCCCC2)cc1
[2]
  inhibition: 13.4%

## COc1cc(/C=C/C=C/C(=O)N2CCCCC2)cc(OC)c1OC
[2]
  inhibition: 66.7%

## COc1ccc(/C=C/C=C/C(=O)N2CCCCC2)cc1
[2]
  inhibition: 42.6%
